Assay results from patent US20120003661A1, “METHODS AND DEVICES FOR THE SELECTIVE DETECTION OF MICROORGANISMS” (C3 JIAN, INC., priority 2010, published 2012).
Entries after “also recorded” stand apart in the source; their conditions may differ.

The substances below were run on bacteria, fungi, and/or yeasts. Conditions: microorganism(s) listed as target(s) of the targeting peptide; wrapped target lists given cell by cell.
Assay type: binding

Substance	Target(s)
1T-280 (TNNKNKVIIKAIKFKNKDFINLDLFIYRR)	A. naeslundii, F. nucleatum, P. gingivalis,; also recorded: T. denticola, S. gordonii,; also recorded: S. mitis, S. mutans, S. oralis,; also recorded: S. salivarious, S. sanguinis
1T-281 (KYEKLTKENLFIRNSGNMCVFIYFLFFG)	A. naeslundii, F. nucleatum, P. gingivalis,; also recorded: S. epidermidis, S. gordonii,; also recorded: S. mitis, S. mutans, S. oralis,; also recorded: S. salivarious, S. sanguinis
1T-282 (ISLVFPAYT)	F. nucleatum, P. gingivalis, S. gordonii,; also recorded: S. mitis, S. mutans, S. oralis,; also recorded: S. salivarious, S. sanguinis
1T-283 (LCTKLEDKQRGRIPAELFIISPIKILERNDAL)	A. naeslundii, F. nucleatum, P. gingivalis,; also recorded: T. denticola, S. epidermidis,; also recorded: S. gordonii, S. mitis,; also recorded: S. mutans, S. oralis, S. salivarious,; also recorded: S. sanguinis
1T-284 (FQYYFSLKRV)	A. naeslundii, F. nucleatum, P. gingivalis,; also recorded: S. gordonii, S. mitis,; also recorded: S. mutans, S. oralis, S. salivarious,; also recorded: S. sanguinis
1T-285 (FFPYYLADFYKQLKFLNEYQTKNKDKVVEFK)	A. naeslundii, F. nucleatum, P. gingivalis,; also recorded: S. gordonii, S. mitis,; also recorded: S. mutans, S. oralis, S. salivarious,; also recorded: S. sanguinis
1T-286 (LGFFNNKADLVKADTERDNRMSSLKIKDL)	S. sanguinis
1T-287 (KGYPLPFQYRLNNH)	P. gingivalis, T. denticola, S. gordonii,; also recorded: S. mitis, S. mutans, S. oralis,; also recorded: S. salivarious, S. sanguinis
1T-288 (RWVGGEPSADIYLSAKDTKT)	F. nucleatum, S. gordonii, S. salivarious,; also recorded: S. sanguinis
1T-289 (EPSADIYLSAKDTKT)	F. nucleatum, P. gingivalis, S. gordonii,; also recorded: S. mitis, S. mutans, S. oralis,; also recorded: S. sanguinis
1T-290 (IINQLNLILLRLMEILIL)	A. naeslundii, F. nucleatum, P. gingivalis,; also recorded: S. gordonii, S. mitis,; also recorded: S. mutans, S. oralis, S. salivarious,; also recorded: S. sanguinis
1T-291 (DMKIIKLYIKILSFLFIKYCNKKLNSVKLKA)	A. naeslundii, F. nucleatum, P. gingivalis,; also recorded: T. denticola, S. mitis,; also recorded: S. mutans, S. oralis
1T-292 (IINQLNLILLRLMEILIL)	A. naeslundii, F. nucleatum, P. gingivalis,; also recorded: S. epidermidis, S. gordonii,; also recorded: S. mitis, S. mutans, S. oralis,; also recorded: S. salivarious, S. sanguinis
1T-293 (HVEDCFLLSNARTTAIHGRANPARGEPRTRSE)	A. naeslundii, F. nucleatum, P. gingivalis,; also recorded: S. epidermidis, S. gordonii,; also recorded: S. mitis, S. mutans, S. oralis,; also recorded: S. salivarious, S. sanguinis
1T-294 (YDKIADGVFKIGKRGVL)	T. denticola
1T-295 (KYKLKKIIL)	S. mitis, S. salivarious, S. sanguinis
1T-296 (EYSQQSFKAKPCSERGVLSP)	A. naeslundii, F. nucleatum, P. gingivalis,; also recorded: S. gordonii, S. mitis,; also recorded: S. mutans, S. oralis, S. salivarious,; also recorded: S. sanguinis
1T-297 (RSLRLNNALTKLPKLWYNRIKEAFYAYNDYDK)	A. naeslundii, F. nucleatum, T. denticola,; also recorded: S. mitis, S. mutans, S. oralis
1T-298 (ILNKKPKLPLWKLGKNYFRRFYVLPTFLA)	A. naeslundii, F. nucleatum, P. gingivalis,; also recorded: T. denticola, S. gordonii,; also recorded: S. mitis, S. mutans, S. oralis,; also recorded: S. salivarious, S. sanguinis
1T-299 (SMLTSFLRSKNTRSLKMYKDVHF)	A. naeslundii, F. nucleatum, S. epidermidis,; also recorded: S. gordonii, S. mitis,; also recorded: S. mutans, S. oralis, S. salivarious,; also recorded: S. sanguinis

Substance	Target(s)
1T-300 (PLIISKAQIKMSGDILGSCFKLFYLRPFF)	S. salivarious, S. sanguinis; also recorded: A. naeslundii, F. nucleatum, P. gingivalis,; also recorded: S. epidermidis, S. gordonii,; also recorded: S. mitis, S. mutans, S. oralis,
1T-301 (SKLPRVLDASLKL)	F. nucleatum, S. gordonii, S. sanguinis
1T-302 (IIIILPKIYLVCKTV)	A. naeslundii, P. gingivalis, S. epidermidis,; also recorded: S. gordonii, S. mitis,; also recorded: S. mutans, S. oralis, S. salivarious,; also recorded: S. sanguinis
1T-303 (LDYENMDCKKRIRI)	A. naeslundii, F. nucleatum, P. gingivalis,; also recorded: S. gordonii, S. mitis,; also recorded: S. mutans, S. oralis, S. salivarious,; also recorded: S. sanguinis
1T-304 (STAGEASRRTASEASRRTAAKLRG)	P. gingivalis
PF-001 (MNNWIIVAQLSVTVINEIIDIMKEKQKGGK)	S. epidermidis, M. luteus, P. mirabilis,; also recorded: E. coli, P. aeruginosa,; also recorded: C. albicans, MRSA, E. faecalis,; also recorded: C. jeikeium
PF-002 (NDDAQ)	yeast and hyphal forms; also recorded: S. epidermidis, P. mirabilis, C. albicans,; also recorded: C. jeikeium, C. jejuni
PF-003 (MNNWIKVAQISVTVINEVIDIMKEKQNGGK)	S. epidermidis, M. luteus, P. mirabilis,; also recorded: C. albicans, MRSA, C. jeikeium
PF-004 (ARLSKAIIIAVIVVYHLDVRGLF)	S. epidermidis, B. subtilis, B. fragilis,; also recorded: E. coli, P. aeruginosa, C. albicans,; also recorded: S. pneumoniae, E. faecalis,; also recorded: C. jeikeium
PF-005 (MESIFKIKLMNGICRSENMNMKKKNKGEKI)	S. epidermidis, E. coli, MRSA, S. pneumoniae,; also recorded: E. faecalis
PF-007 (MGIIAGIIKVIKSLIEQFTGK)	S. epidermidis, M. luteus, E. coli,; also recorded: P. aeruginosa, C. albicans,; also recorded: MRSA, S. pneumoniae, E. faecalis,; also recorded: C. jeikeium
PF-008 (MIEIGSIAYLNGGSKKYNHILNQENR)	S. epidermidis, M. luteus, MRSA,; also recorded: C. jejuni
PF-009 (SKKYNHILNQENR)	yeast and hyphal forms; also recorded: M. luteus, P. mirabilis, C. albicans
PF-010 (MDIDVNKLLQAFVYFKSFEKLRHNNS)	S. epidermidis, M. luteus, E. coli,; also recorded: C. albicans
PF-011 (MFCYYKQHKGDNFSIEEVKNIIADNEMKVN)	M. luteus, E. coli, P. aeruginosa,; also recorded: S. pneumoniae, C. jeikeium
PF-012 (WRGPNTEAGGKSANNIVQVGGAPT)	S. epidermidis, M. luteus, P. mirabilis,; also recorded: E. coli, P. aeruginosa,; also recorded: MRSA, S. pneumoniae, C. jeikeium,; also recorded: C. jejuni
PF-013 (LIQKGLNQTFIVVIRLNNFIKKS)	M. luteus, P. mirabilis, E. coli, P. aeruginosa,; also recorded: MRSA, S. pneumoniae,; also recorded: C. jeikeium, C. jejuni
PF-014 (HPTDNKHN)	E. coli, C. jeikeium
PF-015 (SIDKRNLYNLKYYE)	E. faecalis, C. jeikeium
PF-016 (RKQYDDLSFNFLY)	S. epidermidis, E. faecalis, C. jeikeium

Substance	Target(s)
PF-017 (ESIIE)	E. coli
PF-018 (YYKTYFKEV)	E. coli, C. jeikeium
PF-020 (MKIILLLFLIFGFIVVVTLKSEHQLTLFSI)	S. epidermidis, M. luteus, C. albicans,; also recorded: MRSA, S. pneumoniae,; also recorded: E. faecalis
PF-021 (FSLNFSKQKYVTVN)	yeast and hyphal forms; also recorded: S. epidermidis, M. luteus, P. mirabilis,; also recorded: E. coli, C. albicans, E. faecalis,; also recorded: C. jeikeium
PF-022 (MINELKNKNSGIMNNYVVTKESKL)	M. luteus, P. mirabilis, E. coli, P. aeruginosa,; also recorded: C. albicans, MRSA,; also recorded: S. pneumoniae, E. faecalis, C. jeikeium,; also recorded: C. jejuni
PF-023 (MTKNTIISLENEKTQINDSENESSDLRKAK)	M. luteus, C. jeikeium
PF-024 (DLRKAK)	C. albicans hyphae; also recorded: M. luteus, C. albicans, MRSA, E. faecalis,; also recorded: C. jeikeium
PF-025 (LLIIFRLWLELKWKNKK)	S. epidermidis, M. luteus, P. mirabilis,; also recorded: E. coli, P. aeruginosa,; also recorded: MRSA, E. faecalis, C. jejuni
PF-026 (SIHFIN)	S. epidermidis, M. luteus, P. mirabilis,; also recorded: C. albicans, MRSA, E. faecalis,; also recorded: C. jeikeium
PF-027 (HNARKYLEFISQKIDGDKLTKEDSL)	M. luteus, MRSA, E. faecalis, C. jejuni
PF-028 (ALDCSEQSVILWYETILDKIVGVIK)	S. epidermidis, M. luteus, MRSA
PF-029 (NSTNE)	S. epidermidis, M. luteus, C. albicans,; also recorded: C. jejuni
PF-030 (MTCHQAPTTTHQSNMA)	yeast and hyphal forms; also recorded: S. epidermidis, M. luteus, P. mirabilis,; also recorded: E. coli, P. aeruginosa,; also recorded: C. albicans, MRSA, S. pneumoniae,; also recorded: E. faecalis, C. jeikeium,; also recorded: C. jejuni
PF-031 (MPHHSTTSSRIVVPAHQSNMASTPNLSITP)	M. luteus, C. albicans
PF-033 (MFIFKTTSKSHFHNNVKSLECIKIPINKNR)	S. epidermidis, M. luteus, E. coli,; also recorded: P. aeruginosa, C. albicans,; also recorded: MRSA, S. pneumoniae
PF-034 (EPKKKHFPKMESASSEP)	M. luteus
PF-035 (SFYESY)	S. epidermidis, M. luteus, E. coli,; also recorded: C. albicans, MRSA, C. jeikeium,; also recorded: C. jejuni
PF-036 (ILNRLSRIVSNEVTSLIYSLK)	S. epidermidis, M. luteus, P. mirabilis,; also recorded: E. coli, C. albicans,; also recorded: MRSA, S. pneumoniae, C. jejuni
PF-037 (MTKKRRYDTTEFGLAHSMTAKITLHQALYK)	S. epidermidis, M. luteus, P. aeruginosa,; also recorded: C. albicans, MRSA,; also recorded: S. pneumoniae, E. faecalis, C. jeikeium
